From the supplement of paper PMC10307832

What was measured:
Assay in all cases: relative viability (nuclei count vs DMSO), 5 days (fraction); higher = more cells survive
IA-LM = test system: IA-LM
Summary of the method: (§1)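 A single step with final 0.05% Triton X-100, 1% formaldehyde and 1 ug/ml Hoechst fixed the cells and stained nuclei 5 days after treatment. Lung cancer cell lines in 1536-well plates had been treated by pin tool the day after seeding with one drug alone or a fixed anchor-drug dose plus five library-drug doses (not always all listed) in √10 steps, and nuclei were counted on 4× images. Relative viability is the ratio of nuclei in treated wells to nuclei in vehicle wells, taken as the median of duplicate plates.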

UMC-11 = test system: UMC-11
Summary of the method: as §1

EBC-1 = test system: EBC-1
Summary of the method: as §1

EKVX = test system: EKVX
Summary of the method: as §1

LCLC-103H = test system: LCLC-103H
Summary of the method: as §1

NCI-H1299 = test system: NCI-H1299
Summary of the method: as §1

A549 = test system: A549
Summary of the method: as §1

HCC-44 = test system: HCC-44
Summary of the method: as §1

NCI-H1755 = test system: NCI-H1755
Summary of the method: as §1

NCI-H1703 = test system: NCI-H1703
Summary of the method: as §1

Calu-6 = test system: Calu-6
Summary of the method: as §1

HCC-15 = test system: HCC-15
Summary of the method: as §1

NCI-H1395 = test system: NCI-H1395
Summary of the method: as §1

## Nc1ccn([C@@H]2O[C@H](CO)[C@@H](O)[C@@H]2O)c(=O)n1 [Cytarabine] + CS(=O)(=O)N1CCN(Cc2cc3nc(-c4cccc5[nH]ncc45)nc(N4CCOCC4)c3s2)CC1 [Pictilisib] (partner 1 µM)
IA-LM; first compound 0.005 µM
  relative viability: 0.296
IA-LM; first compound 0.01581 µM
  relative viability: 0.336
IA-LM; first compound 0.05 µM
  relative viability: 0.338
IA-LM; first compound 0.1581 µM
  relative viability: 0.154
IA-LM; first compound 0.5 µM
  relative viability: 0.0939
UMC-11; first compound 0.005 µM
  relative viability: 0.488
UMC-11; first compound 0.01581 µM
  relative viability: 0.411
UMC-11; first compound 0.05 µM
  relative viability: 0.318
UMC-11; first compound 0.1581 µM
  relative viability: 0.175
UMC-11; first compound 0.5 µM
  relative viability: 0.161
EBC-1; first compound 0.005 µM
  relative viability: 0.37
EBC-1; first compound 0.01581 µM
  relative viability: 0.29
EBC-1; first compound 0.05 µM
  relative viability: 0.239
EBC-1; first compound 0.1581 µM
  relative viability: 0.215
EBC-1; first compound 0.5 µM
  relative viability: 0.193
EKVX; first compound 0.005 µM
  relative viability: 0.486
EKVX; first compound 0.01581 µM
  relative viability: 0.362
EKVX; first compound 0.05 µM
  relative viability: 0.406
EKVX; first compound 0.1581 µM
  relative viability: 0.2
EKVX; first compound 0.5 µM
  relative viability: 0.163
LCLC-103H; first compound 0.005 µM
  relative viability: 0.614
LCLC-103H; first compound 0.01581 µM
  relative viability: 0.624
LCLC-103H; first compound 0.05 µM
  relative viability: 0.565
LCLC-103H; first compound 0.1581 µM
  relative viability: 0.513
LCLC-103H; first compound 0.5 µM
  relative viability: 0.617
NCI-H1299; first compound 0.005 µM
  relative viability: 0.819
NCI-H1299; first compound 0.01581 µM
  relative viability: 0.839
NCI-H1299; first compound 0.05 µM
  relative viability: 0.959
NCI-H1299; first compound 0.1581 µM
  relative viability: 0.656
NCI-H1299; first compound 0.5 µM
  relative viability: 0.645
A549; first compound 0.005 µM
  relative viability: 0.506
A549; first compound 0.05 µM
  relative viability: 0.539
A549; first compound 0.1581 µM
  relative viability: 0.0667
A549; first compound 0.5 µM
  relative viability: 0.039
HCC-44; first compound 0.005 µM
  relative viability: 0.492
HCC-44; first compound 0.01581 µM
  relative viability: 0.599
HCC-44; first compound 0.05 µM
  relative viability: 0.5
HCC-44; first compound 0.1581 µM
  relative viability: 0.349
HCC-44; first compound 0.5 µM
  relative viability: 0.385
NCI-H1755; first compound 0.005 µM
  relative viability: 0.378
NCI-H1755; first compound 0.01581 µM
  relative viability: 0.417
NCI-H1755; first compound 0.05 µM
  relative viability: 0.359
NCI-H1755; first compound 0.1581 µM
  relative viability: 0.223
NCI-H1755; first compound 0.5 µM
  relative viability: 0.191
NCI-H1703; first compound 0.005 µM
  relative viability: 0.263
NCI-H1703; first compound 0.01581 µM
  relative viability: 0.182
NCI-H1703; first compound 0.05 µM
  relative viability: 0.194
NCI-H1703; first compound 0.1581 µM
  relative viability: 0.149
NCI-H1703; first compound 0.5 µM
  relative viability: 0.158
Calu-6; first compound 0.005 µM
  relative viability: 0.741
Calu-6; first compound 0.01581 µM
  relative viability: 0.618
Calu-6; first compound 0.05 µM
  relative viability: 0.775
Calu-6; first compound 0.1581 µM
  relative viability: 0.371
Calu-6; first compound 0.5 µM
  relative viability: 0.203
HCC-15; first compound 0.005 µM
  relative viability: 0.709
HCC-15; first compound 0.01581 µM
  relative viability: 0.704
HCC-15; first compound 0.05 µM
  relative viability: 0.672
HCC-15; first compound 0.1581 µM
  relative viability: 0.504
HCC-15; first compound 0.5 µM
  relative viability: 0.453
NCI-H1395; first compound 0.005 µM
  relative viability: 0.616
NCI-H1395; first compound 0.01581 µM
  relative viability: 0.564
NCI-H1395; first compound 0.05 µM
  relative viability: 0.391
NCI-H1395; first compound 0.1581 µM
  relative viability: 0.365
NCI-H1395; first compound 0.5 µM
  relative viability: 0.316
